Source: PMC11640419, “New Synthetic Analogs of Natural 5Z,9Z-Dienoic Acids—Hybrid Molecules Based on Oleanolic Acid: Synthesis and Study of Antitumor Activity” (Cancers, 2024)
Where two headings read alike, the source gives them in different places.

What was measured:
Assay type in all cases: cell-based, human
[1] = test system: Jurkat cells; assay: MILLIPLEX MAP Early Apoptosis 7-plex Magnetic Bead Kit (Luminex); details: 6 h; for Casp 8 protein level: activated caspase-8
Text: (§1) In this study, we employed Luminex technology (MILLIPLEX® MAP 7-plex DNA Damage/Genotoxicity Magnetic Bead Kit and MILLIPLEX® MAP Early Apoptosis 7-plex Magnetic Bead Kit) to analyze protein analytes in Jurkat cell lysates. […] The Luminex xMAP intracellular protein assay is a multiplex multiparameter assay that employs a multiplex of fluorescent-labeled antibodies and magnetic particles to enhance the sensitivity, dynamic range, and accuracy of the analytical method. Luminex technology is employed to identify the proteins of interest present in each well. The mean fluorescence intensity (MFI) of each measured protein is then converted to its concentration (pg·mL^−1) using specialized software and standard curves.
(§2) The test substances were incubated with the cells at two concentrations, […], for a period of six hours. […] Following exposure, approximately 1 × 10⁶ cells from each well were transferred to 0.5-mL tubes (Eppendorf, Hamburg, Germany) and washed with PBS. Subsequently, the PBS was removed, 10 μL of lysis buffer (Cell Signaling Buffer and Detection Kit, Luminex, Austin, TX, USA) supplemented with 2 × protease and phosphatase inhibitors (Luminex, USA) was added, and the mixture was shaken for 30 s. A cocktail of fluorescence-encoded magnetic bead microspheres (MagPlex®, Luminex, USA) was resuspended and treated with ultrasound. Subsequently, 70 μL of this cocktail, 70 μL of protein standard, and 70 μL of the test sample were added to the wells of a 96-well microplate and incubated for 2 h at room temperature with stirring on an orbital shaker at 700–850 rpm. A magnetic plate was firmly attached to the bottom of a 96-well plate, and all wells were washed three times with 100 μL of wash buffer (Cell Signaling Buffer and Detection Kit, Luminex, USA) added to each well to remove unbound particles. Subsequently, 50 μL of […] to each well, and the samples were incubated for one hour at 4 °C on an orbital shaker set at 700–850 rpm. Subsequently, the samples were washed once more to remove any unbound antibodies. Afterwards, 70 μL of streptavidin-phycoerythrin (streptavidin-PE) (Luminex, USA) was added to each well and incubated for 30 min at room temperature on a shaker at 600 rpm. Subsequently, the samples were washed with streptavidin-PE and resuspended in 100 μL of wash buffer for a period of 2 min on a shaker at 800 rpm. The data were analyzed using the Milliplex Analyst 5.1 software (EMD Millipore, Billerica, MA, USA).

[2] = test system: Jurkat; assay: Cytotoxicity assay (7-AAD, flow cytometry)
Protocol: (§3) The human cell lines Jurkat, K562, U937, and HEK293 were obtained from the European Collection of Authenticated Cell Cultures (ECACC) and subsequently cultured in accordance with established standard protocols and sterile techniques. […] Subsequently, the cells were seeded into 24-well plates at a density of 5 × 10^4 cells per well and incubated for 12 h (Jurkat, K562, U937) and 24 h (HEK293).
(§4) The viability of the cells was evaluated through the utilization of the 7-AAD (7-aminoactinomycin D) dye (eBioscience™, San Diego, CA, USA). Following a 24 h incubation period with the test substances, the cells were washed with phosphate-salt buffer (PBS) and centrifuged at 400× g for five minutes. […] Subsequently, all cell samples were subjected to analysis on a NovoCyte Penteon flow cytometer (Agilent, Santa Clara, CA, USA).

[3] = test system: Jurkat cells; assay: MILLIPLEX MAP 7-plex DNA Damage/Genotoxicity Magnetic Bead Kit (Luminex)
Text: as §1, §2

[4] = Cytotoxicity assay (7-AAD, flow cytometry); details: human
Protocol: (§5) The human cell lines Jurkat, K562, U937, and HEK293 were obtained from the European Collection of Authenticated Cell Cultures (ECACC) and subsequently cultured in accordance with established standard protocols and sterile techniques. The cells were maintained in RPMI 1640 (for Jurkat, K562, and U937) or DMEM (for HEK293) medium, both of which were supplemented with […], 10% FBS (Sigma, Kanagawa, Japan), and 100 units/mL penicillin-streptomycin (Sigma). Subsequently, the cells were seeded into 24-well plates at a density of 5 × 10^4 cells per well and incubated for 12 h (Jurkat, K562, U937) and 24 h (HEK293).
(§6) The viability of the cells was evaluated through the utilization of the 7-AAD (7-aminoactinomycin D) dye (eBioscience™, San Diego, CA, USA). Following a 24 h incubation period with the test substances, the cells were washed with phosphate-salt buffer (PBS) and centrifuged at 400× g for five minutes. The precipitate was resuspended in 200 μL of flow cytometry buffer (PBS without calcium and magnesium, 2.5% FBS) and incubated with a 1 mM 7-AAD dye solution for 15 min in the dark at room temperature. Subsequently, all cell samples were subjected to analysis on a NovoCyte Penteon flow cytometer (Agilent, Santa Clara, CA, USA).

[5] = Cytotoxicity assay (7-AAD, flow cytometry); details: human, Jurkat cells; Jurkat, 24 h incubation
Protocol: as §3, §4

[6] = test system: Jurkat cells; assay: Cell cycle analysis (MAK344 kit, flow cytometry); details: compound at CC50, 24 h
Protocol: Cell cycle analysis was performed using the MAK344 cell cycle assay kit (Sigma-Aldrich, St. Louis, MO, USA). Immediately after incubation with the tested compounds for 24 h, cells were gently washed with ice-cold phosphate-buffered saline (PBS) and centrifuged at 450× g for 5 min. After removing the supernatant, the cell precipitate was resuspended and fixed with 70% ethanol with continuous shaking on ice, and then stored at −18 degrees Celsius for 24 h. Prior to staining, the cells were washed with ice-cold PBS, and then 0.5 mL of the Cell Cycle Assay Kit working solution was added to the cell suspension at room temperature in the dark according to the working protocol. Samples were then analyzed on a NovoCyte Penteon flow cytometer (Agilent, USA).

[7] = test system: U937; assay: Cytotoxicity assay (7-AAD, flow cytometry); details: Homo sapiens, U-937; U937, abstract
Protocol: as §5, §6

[8] = test system: K562; assay: Cytotoxicity assay (7-AAD, flow cytometry); details: Homo sapiens; K562, abstract
Protocol: as §5, §6

[9] = test system: HEK293; assay: Cytotoxicity assay (7-AAD, flow cytometry); details: Homo sapiens; HEK293, abstract
Protocol: as §5, §6

[10] = at CC50 (anisomycin at IC50 0.192 μmol/L), AKT/PKB (S473)
[11] = at CC50 (anisomycin at IC50 0.192 μmol/L), BAD (S112)
[12] = at CC50 (anisomycin at IC50 0.192 μmol/L), BCL-2 (S70)
[13] = at CC50 (anisomycin at IC50 0.192 μmol/L), JNK/SAPK1 (T183/Y185)
[14] = at CC50 (anisomycin at IC50 0.192 μmol/L)
[15] = at CC50 (anisomycin at IC50 0.192 μmol/L), activated caspase-9
[16] = at CC50 (anisomycin at IC50 0.192 μmol/L), p53 (S46), apoptosis panel
[17] = 6 h, at CC50 (anisomycin at IC50 0.192 μmol/L), ATR (total)
[18] = 6 h, at CC50 (anisomycin at IC50 0.192 μmol/L), CHK1 (S345)
[19] = 6 h, at CC50 (anisomycin at IC50 0.192 μmol/L), CHK2 (T68)
[20] = 6 h, at CC50 (anisomycin at IC50 0.192 μmol/L), H2AX (S139)
[21] = 6 h, at CC50 (anisomycin at IC50 0.192 μmol/L), MDM2 (total)
[22] = 6 h, at CC50 (anisomycin at IC50 0.192 μmol/L), p21 (total)
[23] = 6 h, at CC50 (anisomycin at IC50 0.192 μmol/L), p53 (S15), genotoxicity panel
[24] = HEK293 cells, HEK293, 24 h incubation
[25] = K562 cells, K562, 24 h incubation
[26] = U937 cells, U937, 24 h incubation

Compound: COc1ccc(C[C@H]2NC[C@H](O)[C@H]2OC(C)=O)cc1 [Anisomycin, anisomycin, reference compound]
- Akt protein level [1, 10]: 129 % of control
- Bad protein level [1, 11]: 486 % of control
- Bcl-2 protein level [1, 12]: 3180 % of control
- JNK protein level [1, 13]: 357 % of control
- Casp 8 protein level [1, 14]: 1229 % of control
- Casp9 protein level [1, 15]: 9353 % of control
- p53 protein level [1, 16]: 17 % of control
- IC50 ([2]; Jurkat cells, concentration used for the control compound, read-out: IC50): 0.192 µM
- ATR protein level [3, 17]: 440 % of control
- Chk1 protein level [3, 18]: 610 % of control
- Chk2 protein level [3, 19]: 20836 % of control
- H2A.X protein level [3, 20]: 1841 % of control
- MDM2 protein level [3, 21]: 367 % of control
- p21 protein level [3, 22]: 3727 % of control
- p53 protein level [3, 23]: 738 % of control

Compound: CC(=O)O[C@H]1CC[C@@]2(C)C(CC[C@]3(C)C2CC=C2C4CC(C)(C)CC[C@]4(C(=O)Nc4ccnn4C)CC[C@]23C)C1(C)C (stereo partly drawn) [compound 7a]
- CC50 at 24 h [4, 24]: 58.4 ± 6.02 µM
- CC50 at 24 h [4, 25]: 17.7 ± 1.39 µM
- CC50 at 24 h [4, 26]: 14.4 ± 1.04 µM
- CC50 at 24 h [5]: 22.1 ± 1.96 µM
- cell population in the S-phase (Freq S) [6]: 48.89%
- percentage of cells in the G2/M phase (Freq G2) [6]: 1.91%

Compound: CC[C@@]1(O)C(=O)OCc2c1cc1n(c2=O)Cc2cc3ccccc3nc2-1 [CPT, camptothecin, reference compound]
- Akt protein level [1, 10]: 196 % of control
- Bad protein level [1, 11]: 516 % of control
- Bcl-2 protein level [1, 12]: 580 % of control
- JNK protein level [1, 13]: 141 % of control
- Casp 8 protein level [1, 14]: 209 % of control
- Casp9 protein level [1, 15]: 10289 % of control
- p53 protein level [1, 16]: 132 % of control
- CC50 at 24 h [4, 24]: 0.692 ± 0.0536 µM
- CC50 at 24 h [4, 25]: 0.595 ± 0.0544 µM
- CC50 at 24 h [4, 26]: 0.522 ± 0.0444 µM
- CC50 at 24 h [5]: 0.588 ± 0.0462 µM
- ATR protein level [3, 17]: 263 % of control
- Chk1 protein level [3, 18]: 52 % of control
- Chk2 protein level [3, 19]: 5800 % of control
- H2A.X protein level [3, 20]: 957 % of control
- MDM2 protein level [3, 21]: 1417 % of control
- p21 protein level [3, 22]: 170654 % of control
- p53 protein level [3, 23]: 17285 % of control

Compound: Cn1nccc1NC(=O)[C@]12CCC(C)(C)C[C@H]1C1=CC[C@@H]3[C@@]4(C)CC[C@H](OC(=O)CCC/C=C\CC/C=C\CCCC(=O)O)C(C)(C)[C@@H]4CC[C@@]3(C)[C@]1(C)CC2 [compound 9a]
- Akt protein level ([1]; at 0,5CC50): 15 % of control
- Bad protein level ([1]; at 0,5CC50): 106 % of control
- Bcl-2 protein level ([1]; at 0,5CC50): 140 % of control
- Casp9 protein level ([1]; at 0,5CC50): 1144 % of control
- JNK protein level ([1]; at 0,5CC50): 78 % of control
- p53 protein level ([1]; at 0,5CC50, apoptosis panel): 112 % of control
- Bad protein level [1, 11]: 55 % of control
- Bcl-2 protein level [1, 12]: 20 % of control
- JNK protein level [1, 13]: 106 % of control
- Casp 8 protein level [1, 14]: 17 % of control
- Casp9 protein level [1, 15]: 1341 % of control
- p53 protein level [1, 16]: 160 % of control
- IC50 [7]: 2.8 µM
- CC50 at 24 h [4, 24]: 26.2 ± 1.93 µM
- CC50 at 24 h [4, 25]: 3.09 ± 0.34 µM
- CC50 at 24 h [4, 26]: 2.85 ± 0.34 µM
- IC50 [8]: 3.1 µM
- IC50 [9]: 26.2 µM
- IC50 ([2]; Homo sapiens, Jurkat, abstract, read-out: IC50 Jurkat): 4.5 µM
- CC50 at 24 h [5]: 4.51 ± 0.41 µM
- cell population in the S-phase (Freq S) [6]: 46.10%
- percentage of cells in the G2/M phase (Freq G2) [6]: 3.96%
- percentage of cells in the pre-G0 phase (Freq Sub-G1) [6]: 8.67%
- ATR protein level ([3]; 6 h, at 0,5CC50): 119 % of control
- Chk1 protein level ([3]; 6 h, at 0,5CC50): 97 % of control
- Chk2 protein level ([3]; 6 h, at 0,5CC50): 645 % of control
- H2A.X protein level ([3]; 6 h, at 0,5CC50): 2485 % of control
- MDM2 protein level ([3]; 6 h, at 0,5CC50): 115 % of control
- p21 protein level ([3]; 6 h, at 0,5CC50): 318 % of control
- p53 protein level ([3]; 6 h, at 0,5CC50, genotoxicity panel): 52 % of control
- level of phosphorylated H2A.X in comparison to the control compound camptothecin ([3]; 6 h, at 0.5CC50): ~3.5 fold
- ATR protein level [3, 17]: 131 % of control
- Chk1 protein level [3, 18]: 144 % of control
- Chk2 protein level [3, 19]: 936 % of control
- H2A.X protein level [3, 20]: 3173 % of control
- MDM2 protein level [3, 21]: 102 % of control
- p21 protein level [3, 22]: 390 % of control
- p53 protein level [3, 23]: 128 % of control
- phosphorylated H2A.X, marker of DNA double-strand breaks ([3]; six hours): dose-dependent increase
